Article PMC6271241, “Several Human Cyclin-Dependent Kinase Inhibitors, Structurally Related to Roscovitine, As New Anti-Malarial Agents” (Molecules, 2014)
Read-outs that look alike come from different tables or passages of the source.

Experiments:
CDK1/cyclin B [1] = test: CDK1/cyclin B kinase assay ([γ-33P] ATP, histone H1); type: biochemical, starfish; conditions: 15 µM ATP, Table 1
Description: (§1) CDK1/cyclin B (M phase starfish oocytes, native), CDK2/cyclin A (human, recombinant) and CDK5/p25 (human, recombinant) were prepared as previously described. […] ATP (3000 Ci/mmol; 10 mCi/mL) in a final volume of 30 µL. After 30 min incubation at 30 °C, 25 µL aliquots of supernatant were spotted onto 2.5 cm × 3 cm pieces of Whatman P81 phosphocellulose paper, and, 20 s later, the filters were washed five times (for at least 5 min each time) in a solution of 10 mL of phosphoric acid/liter of water. The wet filters were counted in the presence of 1 mL of ACS (Amersham, Pittsburgh, PA, USA) scintillation fluid.

CDK5/p25 = target: T1, CDK5/p25 (Homo sapiens, UniProt Q00535); test: CDK5/p25 kinase assay ([γ-33P] ATP, histone H1); type: biochemical
T1 construct: made in house
T1 sequence (Q00535 whole entry): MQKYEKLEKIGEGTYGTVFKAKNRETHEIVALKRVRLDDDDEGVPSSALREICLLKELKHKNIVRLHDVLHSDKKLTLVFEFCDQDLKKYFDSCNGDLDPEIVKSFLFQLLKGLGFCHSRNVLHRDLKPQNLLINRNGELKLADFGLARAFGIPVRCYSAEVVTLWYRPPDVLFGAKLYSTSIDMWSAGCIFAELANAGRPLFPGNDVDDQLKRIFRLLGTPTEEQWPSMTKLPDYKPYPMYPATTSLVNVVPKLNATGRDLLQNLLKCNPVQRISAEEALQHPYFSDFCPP
T1 sequence (Q15078 99-307 partner limits assumed): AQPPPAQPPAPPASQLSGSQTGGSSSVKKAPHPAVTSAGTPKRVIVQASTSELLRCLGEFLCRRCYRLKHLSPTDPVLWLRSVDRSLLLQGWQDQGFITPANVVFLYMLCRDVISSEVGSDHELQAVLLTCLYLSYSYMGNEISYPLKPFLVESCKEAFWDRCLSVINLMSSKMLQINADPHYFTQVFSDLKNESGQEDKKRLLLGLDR
Description: as §1

Pf3D7 = test: [3H]hypoxanthine incorporation growth assay, Pf3D7; type: cell-based, Plasmodium falciparum; conditions: for IC50: Plasmodium falciparum
Description: (§2) A selection of 15 molecules 4b–c, 10–13 representing the different 2,6,9-trisubstituted purine series, including newly synthesized products was screened as anti-malarial agents on two different P. falciparum strains, Pf3D7, a standard drug-sensitive African stain, and Pf7G8, a brazilian chloroquino-resistant strain (Figure 3). The compound activity was evaluated during the parasitic erythocytic cycle, by the means of a [^3H] hypoxanthine incorporation assay. It is directly correlated to parasite viability, as described in the experimental section.
(§3) At first, the activity of the fifteen compounds was screened at three different concentrations (10, 50 and 100 µM) on Pf3D7. Chloroquine which is not a kinase inhibitor, but which is the antimalarial reference drug was used as the positive control. […] Chloroquine was again used as a positive control.
(§4) Compounds were tested against synchronous ring-stage parasites of Pf3D7 and Pf7G8 strains. Drugs testing were carried out in 96-well microtiter plates. The chloroquine (CQ) diphosphate was purchased from Sigma (Lyon, France). […] For each assay, each drug dilution was analyzed in triplicate.
(§5) For the in vitro isotopic microtest, 200 µL of the suspension of synchronous parasitized red blood cells with >90% of the parasites at the ring stage (final parasitaemia, 0.3%; final haematocrit, 4%) per well were plated in 96-well plates that contained serial CQ or compounds concentrations. […] The plates were incubated at 37 °C, in an atmosphere of 5% O2, 5% CO2, and 90% N2 for 48 h. Immediately after incubation, plates were frozen and then thawed to lyse the erythrocytes. Cultures were harvested onto glass fiber filters and washed using a cell harvester (FilterMAT; Skatron Instruments, Dalsletta, Norway). The dried fiber filter papers were mixed with 2 mL of scintillation fluid (OptiScint; Perkin-Elmer, Waltham, UK). […] The initial value and the asymptotic result for high concentrations were fixed to 0% and 100%, respectively, available on the web.

Pf7G8 = test: [3H]hypoxanthine incorporation growth assay, Pf7G8; type: cell-based, Plasmodium falciparum; conditions: for IC50: Plasmodium falciparum
Description: as §2, §3, §4, §5

CDK1/cyclin B [2] = test: CDK1/cyclin B kinase assay ([γ-33P] ATP, histone H1); type: biochemical, starfish; conditions: Table A1; read-out: IC50 on HsCDKs HsCDK1
CK1δ/ε [3] = test: CK1δ/ε kinase assay (CKS peptide); conditions: read-out: IC50 CK1δ/ε; 15 µM ATP; Table 1
Description: (§6) The effects on CDK1/cyclin B, CDK2/cyclin A, CDK5/p25, GSK-3αβ, CK1δ/ε and DYRK1A kinase activity are reported as the IC50 values calculated from dose-response curves. The inhibition was determined covering a range of concentrations of the compounds by means of a [γ-^33P] assay as described in the experimental section.
(§7) Controls were performed with appropriate dilutions of DMSO.

GSK-3α/β = GSK-3α/β kinase assay (GS-1 peptide); conditions: read-out: IC50 GSK-3αβ; 15 µM ATP; Table 1; >10 = no activity at 10 µM
Description: as §6, §7
GSK-3α/β (porcine brain, native) was assayed, as described for CDK1 but in Buffer A and using a GSK-3 specific substrate (GS-1: [sequence]pEDEEE) (pS stands for phosphorylated serine).

CDK2/cyclin A = target: T2, CDK2/cyclin A (Homo sapiens, UniProt P24941); test: CDK2/cyclin A kinase assay ([γ-33P] ATP, histone H1); type: biochemical; conditions: 15 µM ATP, Table 1
T2 construct: made in house
Description: as §1

DYRK1A = DYRK1A (Homo sapiens, UniProt Q13627); test: DYRK1A kinase assay (Woodtide); type: biochemical; conditions: 15 µM ATP; Table 1
CDK1/cyclin B [4] = test system: CDK1/cyclin B; design: method as in PMID 18698753; conditions: previously reported; cited from earlier work
CK1δ/ε [5] = test system: CK1δ/ε; design: method as in PMID 18698753; conditions: previously reported; read-out: IC50 CK1; cited from earlier work
[6] = CDK5/p25, 15 µM ATP, Table 1, read-out: IC50 CDK5
[7] = Table A1, read-out: IC50 on HsCDKs HsCDK5
[8] = 48 h, drug-sensitive strain, 48 h, Table 2, read-out: Growth IC50 Pf3D7
[9] = Table A1, N.I. = not inhibitor, read-out: IC50 on P. falciparum Strains Pf3D7
[10] = Table A1, N.I. = not inhibitor, read-out: IC50 on P. falciparum Strains Pf7G8
[11] = chloroquino-resistant strain, 48 h, Table 2, read-out: Growth IC50 Pf7G8

Row | SMILES | IC50 (CDK1/cyclin B [1]) | IC50 (CDK5/p25; [6]) | IC50 on P. falciparum Strains Pf3D7 (Pf3D7; Table A1, N.I. = not inhibitor) | IC50 on P. falciparum Strains Pf7G8 (Pf7G8; Table A1, N.I. = not inhibitor) | IC50 (CDK1/cyclin B [2]) | IC50 (CK1δ/ε [3]) | IC50 (GSK-3α/β) | IC50 (CDK5/p25; [7]) | IC50 (Pf3D7; [9]) | IC50 (Pf7G8; [10]) | IC50 (Pf7G8; [11]) | further results
1 | CC[C@H](CO)Nc1nc(Nc2ccc(-c3cccnc3)nc2)c2ncn(C(C)C)c2n1 [Compound 10, (R)-2-(1-Hydroxybut-2-ylamino)-6-[6-(3-pyridyl)pyrid-3-ylamino]-9-iso-propylpurine] | 10 nM | 30 nM | N.I. | N.I. | 10 nM | 200 nM | > 10000 nM | – | – | – | – | –
2 | CC(C)n1cnc2c(Nc3cncnc3)nc(Nc3cncnc3)nc21 [Compound 5] | – | 400 nM | – | – | – | – | – | – | – | – | – | IC50 (CDK2/cyclin A): 200 nM
3 | CC[C@H](CO)Nc1nc(Nc2ccc(-c3cncnc3)cc2)c2ncn(C(C)C)c2n1 [Compound 21] | – | – | – | – | 40 nM | – | – | 60 nM | 3050 nM | 690 nM | 690 nM | IC50 (Pf3D7; [8]): 3050 nM
4 | CC[C@H](CO)Nc1nc(Nc2ccc(-c3ccccn3)cc2)c2ncn(C(C)C)c2n1 [Compound 14] | – | – | N.I. | N.I. | 50 nM | – | – | 30 nM | – | – | – | –
5 | CCN(CC)CCCC(C)Nc1ccnc2cc(Cl)ccc12 (stereo not shown) [Chloroquine, chloroquine, reference compound] | – | – | – | – | – | – | – | – | – | – | – | IC50 (Pf3D7; 48 h, read-out: Growth IC50 Pf3D7): 30 nM; IC50 (Pf7G8; 48 h, read-out: Growth IC50 Pf7G8): 180 nM
6 | CC(C)n1cnc2c(Nc3ccc(Br)cc3)nc(Nc3ncccn3)nc21 [Compound 4a] | – | 1000 nM | – | – | – | 1000 nM | 1000 nM | – | – | – | – | IC50 (DYRK1A): 3000 nM
7 | CC[C@@H](CO)Nc1nc(Nc2ccc(-c3ccccn3)cc2)c2ncn(C(C)C)c2n1 [Compound 13, (S)-2-(1-Hydroxybut-2-ylamino)-6-[4-(2-pyridyl)phenylamino]-9-iso-propylpurine] | 200 nM | – | N.I. | N.I. | 200 nM | 500 nM | > 10000 nM | – | – | – | – | IC50 (CDK2/cyclin A): 200 nM
8 | CC(C)n1cnc2c(Nc3ccccn3)nc(Nc3ncccn3)nc21 [Compound 4b] | – | > 10000 nM | N.I. | N.I. | – | > 10000 nM | > 10000 nM | > 10000 nM | – | – | – | IC50 (DYRK1A): 8000 nM
9 | CC[C@@H](CO)Nc1nc(Nc2cccc(-c3ccccn3)c2)c2ncn(C(C)C)c2n1 [Compound 11, (S)-2-(1-Hydroxybut-2-ylamino)-6-[3-(2-pyridyl)phenylamino]-9-iso-propylpurine] | 800 nM | 400 nM | – | – | 800 nM | 40 nM | > 10000 nM | – | 6530 nM | 2060 nM | 2060 nM | IC50 (Pf3D7; [8]): 6530 nM
10 | CC[C@@H](CO)Nc1nc(Nc2cccc(-c3ncccn3)c2)c2ncn(C(C)C)c2n1 [Compound 20] | – | – | – | – | 700 nM | – | – | 500 nM | 22200 nM | 4660 nM | 4660 nM | IC50 (Pf3D7; [8]): 22200 nM
11 | CC(C)n1cnc2c(Nc3cnccn3)nc(Nc3cnccn3)nc21 [Compound 6] | – | – | – | – | – | 1100 nM | > 10000 nM | – | – | – | – | IC50 (CDK2/cyclin A): 2800 nM; IC50 (DYRK1A): 500 nM
12 | CC[C@@H](CO)Nc1nc(Nc2ccc(-c3cncnc3)cc2)c2ncn(C(C)C)c2n1 [Compound 16] | – | – | N.I. | N.I. | 180 nM | – | – | 100 nM | – | – | – | –
13 | CC(C)n1cnc2c(Nc3cccnc3)nc(Nc3ncccn3)nc21 [Compound 4c] | 3000 nM | 4300 nM | N.I. | N.I. | 3000 nM | > 10000 nM | > 10000 nM | – | – | – | – | IC50 (CDK2/cyclin A): 1800 nM; IC50 (DYRK1A): 8000 nM
14 | CC[C@H](CO)Nc1nc(Nc2cccc(-c3cccnc3)c2)c2ncn(C(C)C)c2n1 [Compound 15] | – | – | N.I. | N.I. | 180 nM | – | – | 50 nM | – | – | – | –
15 | CC(C)n1cnc2c(Nc3ccncc3)nc(Nc3ncccn3)nc21 [Compound 4d] | 9300 nM | 7000 nM | – | – | – | 2800 nM | > 10000 nM | – | – | – | – | IC50 (DYRK1A): 5200 nM
16 | CC(C)n1cnc2c(Nc3cccc(-c4cccnc4)c3)nc(Cl)nc21 [Compound 17] | – | – | N.I. | N.I. | 180 nM | – | – | 50 nM | – | – | – | –
17 | CC(C)n1cnc2c(Nc3ccc(Br)cc3)nc(-c3cccnc3)nc21 [Compound 18] | – | – | N.I. | N.I. | 410 nM | – | – | 730 nM | – | – | – | IC50 (CDK1/cyclin B [4]): 410 nM; IC50 (CK1δ/ε [5]): 100 nM
18 | CC[C@@H](CO)Nc1nc(Nc2ccc(-c3ncccn3)cc2)c2ncn(C(C)C)c2n1 [Compound 19] | – | – | – | – | 500 nM | – | – | 270 nM | 7130 nM | 1820 nM | 1820 nM | IC50 (Pf3D7; [8]): 7130 nM
19 | CC[C@@H](CO)Nc1nc(Nc2cccc(-c3cccnc3)c2)c2ncn(C(C)C)c2n1 [Compound 12, (S)-2-(1-Hydroxybut-2-ylamino)-6-[3-(3-pyridyl)phenylamino]-9-iso-propylipurine] | 200 nM | 100 nM | – | – | 200 nM | 200 nM | > 10000 nM | – | 5370 nM | 1550 nM | 1550 nM | –
20 | CC(C)n1cnc2c(Nc3ccc(Br)cc3)nc(-c3ccncc3)nc21 [Compound 22] | – | – | – | – | 600 nM | – | – | 600 nM | 1390 nM | 990 nM | 990 nM | IC50 (Pf3D7; [8]): 1390 nM; IC50 (CDK1/cyclin B [4]): 590 nM; IC50 (CK1δ/ε [5]): 80 nM
